Test system: HIV-1 strains resistant to INSTIs, NRTIs, NNRTIs or PIs
Test: not given
Format: cell-based
Conditions: INSTI-resistant, NL4-3 background
Protocol: To this end, we used both recombinant viruses constructed by introducing described drug resistance mutations into NL4-3 HIV-1 clone as well as drug-resistant clinical HIV-1 isolates.
(§1) MT4 cells growing exponentially at the density of 10^6/mL were infected with HIV-1 strain NL4-3 at a multiplicity of infection (MOI) of 0.001 for 2 h in the presence of different concentrations of compounds, and the CellTiter-Glo luminescent reagent (Promega) was used to quantify cell viability as described previously ([12]).

Compound | Fold change in EC50 relative to NL4-3, G140S/Q148H | Fold change in EC50 relative to NL4-3, E92Q | Fold change in EC50 relative to NL4-3, G140S | Fold change in EC50 relative to NL4-3, N155H | Fold change in EC50 relative to NL4-3, Q148H | Fold change in EC50 relative to NL4-3, Y143R
CC(C)CN(C[C@@H](O)[C@H](Cc1ccccc1)NC(=O)O[C@H]1CO[C@H]2OCC[C@H]21)S(=O)(=O)c1ccc(N)cc1 [DRV, darunavir] | 1 |  |  |  |  | 
COc1cc2c(cc1Cc1cccc(Cl)c1F)c(=O)c(C(=O)O)cn2[C@H](CO)C(C)C [EVG, elvitegravir] | 2500 | 24 | 2 | 12 | 3 | 2
Cc1cn([C@H]2C[C@H](N=[N+]=[N-])[C@@H](CO)O2)c(=O)[nH]c1=O [AZT, azidothymidine] | 1 | 1 | 1 | 1 | 1 | 1

Same assay, conditions: INSTI-resistant, primary patient-derived strain

Compound | Fold change in EC50 relative to NL4-3, E92Q/N155H (pat.) | Fold change in EC50 relative to NL4-3, G140S/Q148H (pat.) | Fold change in EC50 relative to NL4-3, T97A/N155H (pat.)
COc1cc2c(cc1Cc1cccc(Cl)c1F)c(=O)c(C(=O)O)cn2[C@H](CO)C(C)C [EVG, elvitegravir] | 200 | 2000 | 440
Cc1cn([C@H]2C[C@H](N=[N+]=[N-])[C@@H](CO)O2)c(=O)[nH]c1=O [AZT, azidothymidine] | 1 | 1 | 4

Same assay, conditions: NRTI-resistant clone

Compound | Fold change in EC50 relative to NL4-3, NLAY351717
CC(C)CN(C[C@@H](O)[C@H](Cc1ccccc1)NC(=O)O[C@H]1CO[C@H]2OCC[C@H]21)S(=O)(=O)c1ccc(N)cc1 [DRV, darunavir] | 1
COc1cc2c(cc1Cc1cccc(Cl)c1F)c(=O)c(C(=O)O)cn2[C@H](CO)C(C)C [EVG, elvitegravir] | 1
Cc1cn([C@H]2C[C@H](N=[N+]=[N-])[C@@H](CO)O2)c(=O)[nH]c1=O [AZT, azidothymidine] | 150

Same assay, conditions: NRTI/NNRTI-resistant clone

Compound | Fold change in EC50 relative to NL4-3, NLAY351753
CC(C)CN(C[C@@H](O)[C@H](Cc1ccccc1)NC(=O)O[C@H]1CO[C@H]2OCC[C@H]21)S(=O)(=O)c1ccc(N)cc1 [DRV, darunavir] | 1
COc1cc2c(cc1Cc1cccc(Cl)c1F)c(=O)c(C(=O)O)cn2[C@H](CO)C(C)C [EVG, elvitegravir] | 1
Cc1cn([C@H]2C[C@H](N=[N+]=[N-])[C@@H](CO)O2)c(=O)[nH]c1=O [AZT, azidothymidine] | 210

Same assay, conditions: NRTI/NNRTIs group, NL4-3 background

Compound | Fold change in EC50 relative to NL4-3, K103N/Y181C
CC(C)CN(C[C@@H](O)[C@H](Cc1ccccc1)NC(=O)O[C@H]1CO[C@H]2OCC[C@H]21)S(=O)(=O)c1ccc(N)cc1 [DRV, darunavir] | 1
COc1cc2c(cc1Cc1cccc(Cl)c1F)c(=O)c(C(=O)O)cn2[C@H](CO)C(C)C [EVG, elvitegravir] | 1
Cc1cn([C@H]2C[C@H](N=[N+]=[N-])[C@@H](CO)O2)c(=O)[nH]c1=O [AZT, azidothymidine] | 0.1

Same assay, conditions: PI-resistant virus

Compound | Fold change in EC50 relative to NL4-3, ARP-4595 | Fold change in EC50 relative to NL4-3, ARP-4596 | Fold change in EC50 relative to NL4-3, ARP-11801 | Fold change in EC50 relative to NL4-3, ARP-11803 | Fold change in EC50 relative to NL4-3, ARP-11807 | Fold change in EC50 relative to NL4-3, ARP-11808
CC(C)CN(C[C@@H](O)[C@H](Cc1ccccc1)NC(=O)O[C@H]1CO[C@H]2OCC[C@H]21)S(=O)(=O)c1ccc(N)cc1 [DRV, darunavir] | 1 | 1 | 31 | 24 | 12 | 240
COc1cc2c(cc1Cc1cccc(Cl)c1F)c(=O)c(C(=O)O)cn2[C@H](CO)C(C)C [EVG, elvitegravir] | 1 | 1 | 1 | 1 | 2 | 2
Cc1cn([C@H]2C[C@H](N=[N+]=[N-])[C@@H](CO)O2)c(=O)[nH]c1=O [AZT, azidothymidine] | 2 | 1 | 1 | 2 | 2 | 5

Test system: not listed separately
Test: Cytotoxicity assay in MT4 cells
Format: cell-based
Conditions: human, MT4 cells (proliferating human T-cell line), CellTiter-Glo
Text: Growth inhibition was monitored in a proliferating human T-cell line (MT4) with different concentrations of compounds, using the CellTiter-Glo luminescent reagent (Promega), as previously described ([12]).

Compound | CC50 [nM]
Cc1nnc(C(=O)NC(C)(C)c2nc(C(=O)NCc3ccc(F)cc3)c(O)c(=O)n2C)o1 [RAL, raltegravir] | 438000 ± 29000

Test system: HXB2 HIV-1 strain
Test: Multiple-round infection assay in MT4 cells, HXB2
Format: cell-based
Conditions: Human immunodeficiency virus 1, HXB2, MT4, read-out: EC50 HXB2
Protocol: Antiretroviral activity of BDM-2 and its analogs was first evaluated in lymphoblastoid cell line MT4 and in primary human T lymphocytes using NL4-3 and HXB2 laboratory HIV-1 isolates.
as §1

Compound | EC50 [nM]
Cc1nnc(C(=O)NC(C)(C)c2nc(C(=O)NCc3ccc(F)cc3)c(O)c(=O)n2C)o1 [RAL, raltegravir] | 8.7 ± 6

Test system: NL4-3 HIV-1 with INLAI-selected IN single point mutations
Test: not given
Format: cell-based
Conditions: NL4-3 IN A128T

Compound | EC50 fold change compared to wild type NL4-3, A128T
COc1cc2c(cc1Cc1cccc(Cl)c1F)c(=O)c(C(=O)O)cn2[C@H](CO)C(C)C [EVG, elvitegravir] | 1

Same assay, conditions: NL4-3 IN H171Q

Compound | EC50 fold change compared to wild type NL4-3, H171Q
COc1cc2c(cc1Cc1cccc(Cl)c1F)c(=O)c(C(=O)O)cn2[C@H](CO)C(C)C [EVG, elvitegravir] | 1

Same assay, conditions: NL4-3 IN N222K

Compound | EC50 fold change compared to wild type NL4-3, N222K
COc1cc2c(cc1Cc1cccc(Cl)c1F)c(=O)c(C(=O)O)cn2[C@H](CO)C(C)C [EVG, elvitegravir] | 1

Same assay, conditions: NL4-3 IN T174I

Compound | EC50 fold change compared to wild type NL4-3, T174I
COc1cc2c(cc1Cc1cccc(Cl)c1F)c(=O)c(C(=O)O)cn2[C@H](CO)C(C)C [EVG, elvitegravir] | 1

Same assay, conditions: NL4-3 IN Y99H

Compound | EC50 fold change compared to wild type NL4-3, Y99H
COc1cc2c(cc1Cc1cccc(Cl)c1F)c(=O)c(C(=O)O)cn2[C@H](CO)C(C)C [EVG, elvitegravir] | 1

Test system: NL4-3 HIV-1 strain
Test: Multiple-round infection assay in MT4 cells, NL4-3
Format: cell-based
Conditions: Human immunodeficiency virus 1, NL43, MT4, read-out: EC50 NL4-3

Compound | EC50 [nM]
Cc1nnc(C(=O)NC(C)(C)c2nc(C(=O)NCc3ccc(F)cc3)c(O)c(=O)n2C)o1 [RAL, raltegravir] | 14 ± 9

Same assay, conditions: Human immunodeficiency virus 1, NL43, MT4, read-out: EC90 NL4-3

Compound | EC90 [nM]
Cc1nnc(C(=O)NC(C)(C)c2nc(C(=O)NCc3ccc(F)cc3)c(O)c(=O)n2C)o1 [RAL, raltegravir] | 28 ± 14

Same assay, conditions: Human immunodeficiency virus 1, NL43, MT4; wild type NL4-3, Table 9; read-out: EC50 NL4-3

Compound | EC50 [nM]
COc1cc2c(cc1Cc1cccc(Cl)c1F)c(=O)c(C(=O)O)cn2[C@H](CO)C(C)C [EVG, elvitegravir] | 2.2 ± 1.2

Test system: VSV-G-pseudotyped NL4-3Δenv-luc
Test: microbe, parasite or virus in culture
Format: cell-based, HIV-1
Conditions: Human immunodeficiency virus 1, NL43, MT4, read-out: EC50 in single-round infection

Compound | EC50 [nM]
Cc1nnc(C(=O)NC(C)(C)c2nc(C(=O)NCc3ccc(F)cc3)c(O)c(=O)n2C)o1 [RAL, raltegravir] | 3.5 ± 1

Test system: lab-adapted and clinical HIV-1 isolates
Test: Infection assays in primary T CD4+ lymphocytes
Format: cell-based
Conditions: Human immunodeficiency virus 1, Lymphocyte, read-out: EC50 33913N (B)

Compound | EC50 [nM]
Cc1nnc(C(=O)NC(C)(C)c2nc(C(=O)NCc3ccc(F)cc3)c(O)c(=O)n2C)o1 [RAL, raltegravir] | 2.1 ± 0.1

Same assay, conditions: Human immunodeficiency virus 1, Lymphocyte, read-out: EC50 HXB2 (B)

Compound | EC50 [nM]
Cc1nnc(C(=O)NC(C)(C)c2nc(C(=O)NCc3ccc(F)cc3)c(O)c(=O)n2C)o1 [RAL, raltegravir] | 2.6 ± 1.4

Same assay, conditions: Human immunodeficiency virus 1, Lymphocyte, read-out: EC50 KER2008 (A)

Compound | EC50 [nM]
Cc1nnc(C(=O)NC(C)(C)c2nc(C(=O)NCc3ccc(F)cc3)c(O)c(=O)n2C)o1 [RAL, raltegravir] | 6.7 ± 4

Same assay, conditions: Human immunodeficiency virus 1, Lymphocyte, read-out: EC50 NL4-3 (B)

Compound | EC50 [nM]
Cc1nnc(C(=O)NC(C)(C)c2nc(C(=O)NCc3ccc(F)cc3)c(O)c(=O)n2C)o1 [RAL, raltegravir] | 4.9 ± 2.3

Same assay, conditions: Human immunodeficiency virus 1, Lymphocyte, read-out: EC50 NP1525 (CRF01_AE)

Compound | EC50 [nM]
Cc1nnc(C(=O)NC(C)(C)c2nc(C(=O)NCc3ccc(F)cc3)c(O)c(=O)n2C)o1 [RAL, raltegravir] | 4 ± 1.7

Same assay, conditions: Human immunodeficiency virus 1, Lymphocyte, read-out: EC50 NP1538 (B)

Compound | EC50 [nM]
Cc1nnc(C(=O)NC(C)(C)c2nc(C(=O)NCc3ccc(F)cc3)c(O)c(=O)n2C)o1 [RAL, raltegravir] | 1.7 ± 1.9

Source: publication PMC10353390, “Biological and Structural Analyses of New Potent Allosteric Inhibitors of HIV-1 Integrase” (Antimicrobial Agents and Chemotherapy, 2023)
